In the NIST ThermoML archive (doi:10.1021/je034173q):

Assays:
[1] = molar heat capacity at constant pressure; conditions: 101.33 kPa, Liquid, Small sample (50 mg) DSC
[2] = Liquid, Ebulliometric method (Recirculating still)

O=C1OCCO1 [ethylene carbonate]
Conditions	molar heat capacity at constant pressure [J/K/mol]	vapor or sublimation pressure [kPa]
[1], 383.15 K	155.87	–
[1], 388.15 K	156.75	–
[1], 393.15 K	157.63	–
[1], 398.15 K	158.51	–
[2], 451.58 K	–	15.19
[2], 456.04 K	–	17.52
[2], 460.15 K	–	19.94
[2], 466.22 K	–	24.23
[2], 487.1 K	–	44.69
[2], 493.67 K	–	53.59
[2], 500.01 K	–	63.34
[2], 505.5 K	–	73.45

O=C1OCC(CO)O1 (centres undefined) [glycerine carbonate]
Conditions	molar heat capacity at constant pressure [J/K/mol]	vapor or sublimation pressure [kPa]
[1], 283.15 K	211.38	–
[1], 293.15 K	213.74	–
[1], 303.15 K	214.92	–
[1], 313.15 K	216.1	–
[1], 323.15 K	217.28	–
[1], 333.15 K	218.46	–
[1], 343.15 K	220.82	–
[1], 353.15 K	223.19	–
[1], 363.15 K	225.55	–
[1], 373.15 K	226.73	–
[2], 429.91 K	–	0.26
[2], 432.47 K	–	0.3
[2], 434.39 K	–	0.33
[2], 435.94 K	–	0.36
[2], 438.9 K	–	0.41
[2], 447.48 K	–	0.62
[2], 449.41 K	–	0.68
[2], 452.48 K	–	0.78
[2], 455.61 K	–	0.9

CCC1COC(=O)O1 (centres undefined) [1,2-butylene carbonate]
Conditions	molar heat capacity at constant pressure [J/K/mol]	vapor or sublimation pressure [kPa]
[1], 283.15 K	192.75	–
[1], 293.15 K	195.07	–
[1], 303.15 K	197.4	–
[1], 313.15 K	199.72	–
[1], 323.15 K	202.04	–
[1], 333.15 K	205.52	–
[1], 343.15 K	207.85	–
[1], 353.15 K	210.17	–
[1], 363.15 K	212.49	–
[1], 373.15 K	214.81	–
[2], 397.25 K	–	1.9
[2], 402.93 K	–	2.44
[2], 409.65 K	–	3.23
[2], 417.69 K	–	4.45
[2], 424.67 K	–	5.8
[2], 432.03 K	–	7.57
[2], 438.31 K	–	9.43
[2], 445.57 K	–	12.03
[2], 453.2 K	–	15.39
[2], 460.53 K	–	19.28
[2], 467.68 K	–	23.89
[2], 474.59 K	–	29.14
[2], 481.93 K	–	35.77
[2], 488.3 K	–	42.38
[2], 495.04 K	–	50.52
[2], 501.76 K	–	59.91
[2], 508.33 K	–	70.54
[2], 515.54 K	–	83.68
[2], 522.74 K	–	99.08

CC1COC(=O)O1 (centres undefined) [4-methyl-1,3-dioxolan-2-one]
Conditions	molar heat capacity at constant pressure [J/K/mol]	vapor or sublimation pressure [kPa]
[1], 303.15 K	170.49	–
[1], 313.15 K	172.53	–
[1], 323.15 K	174.57	–
[1], 333.15 K	176.61	–
[1], 343.15 K	178.66	–
[1], 353.15 K	180.7	–
[1], 363.15 K	183.76	–
[1], 373.15 K	185.8	–
[1], 383.15 K	188.86	–
[1], 393.15 K	190.91	–
[2], 459.85 K	–	24.21
[2], 465.35 K	–	28.46
[2], 468.45 K	–	31.24
[2], 471.75 K	–	34.04
[2], 475.85 K	–	38.09
[2], 478.35 K	–	40.81
[2], 482.25 K	–	45.44
[2], 485.05 K	–	49.16
[2], 491.25 K	–	57.38
[2], 494.25 K	–	61.83
[2], 496.95 K	–	66.33
[2], 499.45 K	–	70.45
[2], 501.25 K	–	73.46
[2], 504.05 K	–	78.67
[2], 506.65 K	–	83.64
[2], 508.15 K	–	86.64
[2], 509.75 K	–	89.87
[2], 511.15 K	–	92.66
[2], 513.25 K	–	97.17
